Assay results reported in patent US20150335624A1, “COMPOSITIONS AND METHODS FOR USING HUPERZINE AND ANALOGS THEREOF” (INSERO HEALTH INC., priority 2013, published 2015).
“And” between values parts separate entries of the source, which are not always exact repeats. Identical values can stand only once.

Experiments:
Format in all cases: in vivo, human
[1] = Phase 1 clinical trial, peak plasma level of huperzine A
Experimental: (§1) A phase 1 clinical trial was conducted with huperzine A. The primary aim of the study was to conduct a proof-of-principle assessment of the safety and tolerability and early stage pharmacokinetics of dietary supplement Huperzine A up to 6.4 mg/day as add-on, open-label therapy in 8 subjects with drug-resistant epilepsy. The hypothesis was that Huperzine A in 8 subjects with drug-resistant epilepsy as add-on; open-label therapy would be well tolerated when titrated from 1.6 mg/day up to 6.4 mg/day. The secondary aim was to acquire preliminary data on the parasympathetic effect of Huperzine A on cardiac function.
(§2) The trial was a single-center, in-patient, open-label, dose-escalation study conducted at one site. This study would enroll up to 10 adults (≧18 years to 65 years) to obtain 8 randomized subjects with drug-resistant epilepsy that were not well controlled with 1 to 3 concomitant anti-epileptic drugs (AEDs).
The study drug was supplied as 0.200 mg tablets and dispensed by the study site's pharmacy. Huperzine A tablets derived from Huperzia serrata were sourced from a commercially available supplier in the United States.
Randomly chosen tablets of the supplied trial medication, as well as a composite have been assessed for purity by an independent laboratory using standard analytic techniques (HPLC) and found to contain between 0.145 mg and 0.166 mg of Huperzine A per tablet. Subject dosing was based on the label potency of the tablets (i.e. 0.200 mg). Tablets were randomly assigned to each subject in a dosing bottle container containing 120 tablets per subject. Each bottle was labeled with a study identifier. subject ID, dose of each tablet, dosing instructions, expiration date, and lot number.
(§3) Eight subjects with drug-resistant epilepsy were provided huperzine A. Six subjects completed the study. Doses were varied as in Table A. Doses were six hours apart. Subjects 1-3 began dosing at 18:00, subjects 4-8 began dosing at 12:00.

[2] = system: IL-10; assay: Phase 1 clinical trial, inflammatory marker IL-10; conditions: excluding #7
Experimental: as §1, §2, §3
(§4) Table B provides biomarker test results. Baseline, peak and change values represented as mean±the standard error of the mean (SEM). Statistical data is included for all subjects excluding subject #7 because that subject was on a conflicting medication. Peak represents peak plasma level or, if unavailable, the nearest values for all values except cardiological markers where peak represents Day 2. The p-values were calculated from one-sided paired t tests.

[3] = system: IL-17; assay: Phase 1 clinical trial, inflammatory marker IL-17; conditions: excluding #7
Experimental: as §1, §2, §3, §4

[4] = system: IL-6; assay: Phase 1 clinical trial, inflammatory marker IL-6 (Labcorp, different test center); conditions: excluding #7
Experimental: as §1, §2, §3, §4

[5] = system: IL-6; assay: Phase 1 clinical trial, inflammatory marker IL-6 (IITR1); conditions: excluding #7
Experimental: as §1, §2, §3, §4

[6] = system: TNF-alpha; assay: Phase 1 clinical trial, inflammatory marker TNF-alpha; conditions: excluding #7
Experimental: as §1, §2, §3, §4

[7] = Phase 1 clinical trial, renal marker serum creatinine
Experimental: as §1, §2, §3, §4

[8] = Phase 1 clinical trial, renal marker eGFR (creatinine clearance rate); conditions: excluding #7
Experimental: as §1, §2, §3, §4

[9] = Phase 1 clinical trial, ECG recording of cardiac function (heart rate, HRV, TWA, QT, VPB, VT); conditions: for T-wave alternans (TWA): all leads; for TWA elevated: in the normal range
Experimental: as §1, §2, §3
Heart rate, heart rate variability. T-wave alternans, QT interval, ventricular premature beats, and ventricular tachycardia were studied in all 8 subjects enrolled in the study. […] This individual experienced transient peaks in heart rate and a few ventricular premature beats, probably due to an emesis-related surge in sympathetic nerve activity. […] ECG recordings show a transient disconnect in subjects one.

[10] = system: MCP-1; assay: Phase 1 clinical trial, marker MCP-1
Experimental: as §1, §2, §3, §4
Monocyte chemotactic protein-1 (MCP-1) as a marker is implicated in pathogeneses of several diseases characterized by monocytic infiltrates. MCP-1 is involved in the neuroinflammatory processes that take place in the various diseases of the central nervous system, which are characterized by neuronal degeneration. MCP-1 expression in glial cells is increased in epilepsy, brain ischemia, Alzheimer's disease, some encephalomyelitis, and traumatic brain injury.

[11] = system: CRP; assay: Phase 1 clinical trial, cardiologic marker CRP
Experimental: as §1, §2, §3, §4

[12] = system: IL-1 beta; assay: Phase 1 clinical trial, inflammatory marker IL-1 beta; conditions: excluding #7
Experimental: as §1, §2, §3, §4

[13] = peak vs baseline, mean ± SEM, excluding #7
[14] = 8 subjects, full recording period
[15] = 8 subjects, full recording period, listed as huperzine

## C/C=C1\[C@H]2C=C(C)C[C@]1(N)c1ccc(=O)[nH]c1C2 [Huperzine A, (1R,9,13E)-1-amino-13-ethylidene-11-methyl-6-azatricyclo[7.3.1.0^2,7]trideca-2(7),3,10-trien-5-one]
[1]; Subject 1, oral tablets, 4 doses 0.40-0.80 mg six hours apart
  Peak Plasma: 2.6 ng/mL
[1]; Subject 2, 3 doses 0.40-0.80 mg six hours apart
  Peak Plasma: 6.7 ng/mL
[1]; Subject 3, 12 doses 0.40-0.80 mg six hours apart
  Peak Plasma: 9.6 ng/mL
[1]; Subject 4, 11 doses 0.40-0.60 mg six hours apart
  Peak Plasma: 11.8 ng/mL
[1]; Subject 5, 13 doses 0.40-0.80 mg six hours apart
  Peak Plasma: 12.9 ng/mL
[1]; Subject 6, 13 doses 0.40-0.60 mg six hours apart
  Peak Plasma: 15.9 ng/mL
[1]; Subject 7, 13 doses 0.40-0.60 mg six hours apart
  Peak Plasma: 13.2 ng/mL
[2]; mean ± SEM, at peak plasma level, baseline 7.3 ± 2.7
  IL-10 Peak: 8.8 ± 1.5 pg/mL
[2]; peak vs baseline
  IL-10 % Change: 21%
[2]; peak vs baseline, mean ± SEM
  IL-10 Change: 1.6 ± 1.6 pg/mL
[3]; mean ± SEM, at peak plasma level, baseline 35.1 ± 17.7
  IL-17 Peak: 36.1 ± 19.2 pg/mL
[3]; peak vs baseline
  IL-17 % Change: 3%
[3]; peak vs baseline, mean ± SEM
  IL-17 Change: 1.0 ± 1.0 pg/mL
[4]; mean ± SEM, at peak plasma level, baseline 1.8 ± 1.2
  IL-6 (Labcorp) Peak: 4.2 ± 2.4 pg/mL
[4]; peak vs baseline
  IL-6 (Labcorp) % Change: 133%
[4]; peak vs baseline, mean ± SEM
  IL-6 (Labcorp) Change: 2.4 ± 2.6 pg/mL
[5]; mean ± SEM, at peak plasma level, baseline 1.3 ± 0.2
  IL-6 (IITR1) Peak: 2.8 ± 0.7 pg/mL
[5]; peak vs baseline
  IL-6 (IITR1) % Change: 115%
[5]; peak vs baseline, mean ± SEM
  IL-6 (IITR1) Change: 1.5 ± 1.5 pg/mL
[6]; mean ± SEM, at peak plasma level, baseline 1.6 ± 0.4
  TNF-alpha Peak: 1.3 ± 0.4 pg/mL
[6]; peak vs baseline
  TNF-alpha % Change: −15%
[6]; peak vs baseline, mean ± SEM
  TNF-alpha Change: -0.2 ± 0.1 pg/mL
[7]; from an average of 0.9 mg/dL, p-value 0.02
  decrease in serum creatinine: 18%
[7]; mean ± SEM, excluding #7, at peak plasma level, baseline 0.9 ± 0.3
  Serum creatine Peak: 0.7 ± 0.1 mg/dL
[7]; peak vs baseline, excluding #7
  Serum creatine % Change: −18%
[7]; [13]
  Serum creatine Change: -0.2 ± 0.2 mg/dL
[8]; mean ± SEM, at peak plasma level, baseline 98.3 ± 23.5
  eGFR (flow rate) Peak: 107.6 ± 13.4 mL/min/1.73
[8]; peak vs baseline
  eGFR (flow rate) % Change: 9%
[8]; peak vs baseline, mean ± SEM
  eGFR (flow rate) Change: 9.3 ± 12.7 mL/min/1.73
[9]; [14]
  T-wave alternans (TWA): generally low in all leads
  Heart rate: stable throughout the recordings in all but one subject
  QT interval: unaltered
  ventricular premature beat (VPB) count: low
[9]; [15]
  T-wave alternans (TWA): low TWA levels
  Heart rate: 7 of the 8 subjects exhibited stable heart rates
[9]; 8 subjects, corrected using Bazett's formula
  QTc interval: none of the 8 subjects in the study exhibited an increase in QTc interval
[9]; 8 subjects, entire recording period
  episodes of ventricular tachycardia: no episodes of ventricular tachycardia occurred in any of the 8 subjects
[9]; 8 subjects, full recording period, normal range about 1 to about 4
  heart rate variability, low frequency/high frequency (LF/HF) ratio: stable
[9]; after huperzine administration
  cardiac electrical activity: remains normal
[9]; during the first 6 hours of recording
  LF/HF ratio trend: trend toward lowering of the LF/HF ratio
[9]; subject 1007
  TWA elevated: about 25 μV
[9]; subject only, apparently related to emesis
  increase in heart rate: about 120 beats/min
[9]; subject two, during final 120-beat/min heart rate surge
  TWA elevated: about 30 μV
[10]; from an average of 175.2±43.5 pg/mL
  decrease in levels of MCP-1: 15%
[10]; mean ± SEM, excluding #7, at peak plasma level, baseline 175.2 ± 43.5
  MCP-1 Peak: 148.9 pg/mL and 148.9 ± 26.3 pg/mL
[10]; peak vs baseline, excluding #7
  MCP-1 % Change: −15%
[10]; [13]
  MCP-1 Change: -26.3 ± 28.6 pg/mL
[11]; from an average of 2.6±3.0 mg/L, p-value 0.02
  decrease in CRP: 29%
[11]; mean ± SEM, subjects excluding #7, peak = Day 2, baseline 2.6 ± 3.0
  CRP Peak: 1.8 ± 2.3 mg/L
[11]; peak vs baseline, excluding #7
  CRP % Change: −29%
[11]; [13]
  CRP Change: -0.7 ± 0.8 mg/L
[12]; mean ± SEM, at peak plasma level, baseline 23.9 ± 12.4
  IL-1 beta Peak: 30.0 ± 9.8 pg/mL
[12]; peak vs baseline
  IL-1 beta % Change: 26%
[12]; peak vs baseline, mean ± SEM
  IL-1 beta Change: 6.1 ± 5.2 pg/mL
